Data published in the NIST ThermoML archive (doi:10.1016/j.fluid.2019.01.028).
± gives the expanded uncertainty stated by the source.

Assay: activity coefficient (dimensionless); of the first substance listed, at infinite dilution; xn = mol fraction of the nth substance listed
Details: Liquid, Chromatography, x1 = 0

Structure (SMILES)	activity coefficient (313 K)	activity coefficient (323 K)	activity coefficient (333 K)	activity coefficient (343 K)	activity coefficient (353 K)
CCCO [propan-1-ol] + CCCC[n+]1ccn(C)c1.O=S(=O)([N-]S(=O)(=O)C(F)(F)F)C(F)(F)F	1.94 ± 0.17	1.77 ± 0.16	1.63 ± 0.14	1.51 ± 0.13	1.4 ± 0.12
c1ccccc1 [benzene] + CCCC[n+]1ccn(C)c1.O=S(=O)([N-]S(=O)(=O)C(F)(F)F)C(F)(F)F	0.938 ± 0.08	0.957 ± 0.081	0.975 ± 0.083	0.99 ± 0.084	1.01 ± 0.09
c1ccccc1 [benzene] + CCCCn1cc[n+](C)c1.[Cl-]	4.09 ± 0.38	4.14 ± 0.38	4.15 ± 0.38	4.15 ± 0.38	4.12 ± 0.38
c1ccoc1 [furan] + CCCCn1cc[n+](C)c1.[Cl-]	1.41 ± 0.13	1.48 ± 0.13	1.56 ± 0.14	1.66 ± 0.15	1.75 ± 0.16
CCO [ethanol] + CCCCn1cc[n+](C)c1.[Cl-]		0.208 ± 0.032	0.213 ± 0.032	0.22 ± 0.032	0.229 ± 0.033
CCCO [propan-1-ol] + CCCCn1cc[n+](C)c1.[Cl-]			0.286 ± 0.035	0.292 ± 0.036	0.301 ± 0.036
CO [methanol] + CCCCn1cc[n+](C)c1.[Cl-]		0.1 ± 0.03	0.104 ± 0.03	0.109 ± 0.03	0.115 ± 0.03
CCc1ccccc1 [ethylbenzene] + CCCCn1cc[n+](C)c1.[Cl-]	12.5 ± 1.2	12.5 ± 1.2	12.4 ± 1.1	12.4 ± 1.1	12.4 ± 1.1
Clc1ccccc1 [chlorobenzene] + CCCC[n+]1ccn(C)c1.O=S(=O)([N-]S(=O)(=O)C(F)(F)F)C(F)(F)F	1.5 ± 0.13	1.52 ± 0.13	1.53 ± 0.13	1.54 ± 0.13	1.54 ± 0.13
CCc1ccco1 [2-ethylfuran] + CCCC[n+]1ccn(C)c1.O=S(=O)([N-]S(=O)(=O)C(F)(F)F)C(F)(F)F	1.47 ± 0.13	1.49 ± 0.13	1.51 ± 0.13	1.52 ± 0.13	1.54 ± 0.13
Cc1ccco1 [2-methylfuran] + CCCCn1cc[n+](C)c1.[Cl-]	3.61 ± 0.33	3.76 ± 0.35	3.84 ± 0.35	3.96 ± 0.36	4.08 ± 0.37
c1ccoc1 [furan] + CCCC[n+]1ccn(C)c1.O=S(=O)([N-]S(=O)(=O)C(F)(F)F)C(F)(F)F	0.678 ± 0.06	0.695 ± 0.061	0.711 ± 0.063	0.727 ± 0.064	0.739 ± 0.065
CCc1ccco1 [2-ethylfuran] + CCCCn1cc[n+](C)c1.[Cl-]	5.85 ± 0.54	6 ± 0.55	6.12 ± 0.56	6.23 ± 0.57	6.41 ± 0.59
Cc1ccc(C)o1 [2,5-dimethylfuran] + CCCCn1cc[n+](C)c1.[Cl-]	9.51 ± 0.87	9.6 ± 0.88	9.61 ± 0.88	9.64 ± 0.89	9.76 ± 0.9
Cc1ccc(C)o1 [2,5-dimethylfuran] + CCCC[n+]1ccn(C)c1.O=S(=O)([N-]S(=O)(=O)C(F)(F)F)C(F)(F)F	1.83 ± 0.16	1.85 ± 0.16	1.86 ± 0.16	1.88 ± 0.17	1.88 ± 0.17
Cc1ccco1 [2-methylfuran] + CCCC[n+]1ccn(C)c1.O=S(=O)([N-]S(=O)(=O)C(F)(F)F)C(F)(F)F	1.1 ± 0.09	1.12 ± 0.1	1.15 ± 0.1	1.17 ± 0.1	1.18 ± 0.1
Cc1ccccc1 [toluene] + CCCCn1cc[n+](C)c1.[Cl-]	7.19 ± 0.66	7.24 ± 0.67	7.23 ± 0.66	7.3 ± 0.67	7.38 ± 0.68
Clc1ccccc1 [chlorobenzene] + CCCCn1cc[n+](C)c1.[Cl-]	3.41 ± 0.31	3.58 ± 0.33	3.71 ± 0.34	3.82 ± 0.35	3.96 ± 0.36
CCO [ethanol] + CCCC[n+]1ccn(C)c1.O=S(=O)([N-]S(=O)(=O)C(F)(F)F)C(F)(F)F	1.6 ± 0.14	1.48 ± 0.13	1.37 ± 0.12	1.28 ± 0.11	1.2 ± 0.1
CO [methanol] + CCCC[n+]1ccn(C)c1.O=S(=O)([N-]S(=O)(=O)C(F)(F)F)C(F)(F)F	1.26 ± 0.11	1.21 ± 0.1	1.09 ± 0.09	1.06 ± 0.09	1.03 ± 0.09
CCc1ccccc1 [ethylbenzene] + CCCC[n+]1ccn(C)c1.O=S(=O)([N-]S(=O)(=O)C(F)(F)F)C(F)(F)F	1.98 ± 0.18	2.01 ± 0.18	2.01 ± 0.18	2.05 ± 0.18	2.07 ± 0.18
Cc1ccccc1 [toluene] + CCCC[n+]1ccn(C)c1.O=S(=O)([N-]S(=O)(=O)C(F)(F)F)C(F)(F)F	1.31 ± 0.11	1.34 ± 0.12	1.37 ± 0.12	1.39 ± 0.12	1.42 ± 0.12
